Data as given in paper PMC3593989 (Biochimica et biophysica acta, 2013).

Legend:
[1] = target: T1, acyl-CoA synthetase 4 (Acsl4) (Rattus norvegicus, UniProt O35547); format: biochemical
[2] = target: T1, acyl-CoA synthetase 4 (Acsl4); format: biochemical; remark: listed apart in the source

T1 sequence (O35547 whole entry): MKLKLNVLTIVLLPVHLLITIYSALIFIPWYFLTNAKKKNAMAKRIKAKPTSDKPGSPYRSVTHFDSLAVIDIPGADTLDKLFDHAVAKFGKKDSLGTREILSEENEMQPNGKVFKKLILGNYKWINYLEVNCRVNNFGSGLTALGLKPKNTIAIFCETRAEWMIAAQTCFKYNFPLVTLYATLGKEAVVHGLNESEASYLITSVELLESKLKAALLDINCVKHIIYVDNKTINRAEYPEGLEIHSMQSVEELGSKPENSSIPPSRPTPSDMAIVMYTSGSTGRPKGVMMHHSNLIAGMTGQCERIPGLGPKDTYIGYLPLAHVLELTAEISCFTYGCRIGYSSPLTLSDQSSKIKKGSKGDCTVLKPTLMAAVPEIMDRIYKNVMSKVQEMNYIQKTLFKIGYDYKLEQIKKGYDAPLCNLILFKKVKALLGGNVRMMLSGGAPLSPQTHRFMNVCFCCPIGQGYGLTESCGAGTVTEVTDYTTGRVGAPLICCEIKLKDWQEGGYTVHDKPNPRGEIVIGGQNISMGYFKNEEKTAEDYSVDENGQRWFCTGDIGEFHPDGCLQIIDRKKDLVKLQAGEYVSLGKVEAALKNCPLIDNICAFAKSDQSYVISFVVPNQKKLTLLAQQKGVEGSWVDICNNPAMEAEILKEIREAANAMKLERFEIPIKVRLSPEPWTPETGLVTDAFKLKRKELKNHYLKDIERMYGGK

SMILES	Ki [1]	Km [2]
CCCC(C(=O)O)C(C)C (racemic) [PIA, 2-isopropylpentanoic acid]	11.4 ± 1.28 mM	–
CCCCC/C=C\C/C=C\C/C=C\C/C=C\CCCC(=O)O [AA, arachidonic acid]	–	4.12 ± 0.56 µM
